pIC50: −log10 of the molar value.
Experiments:
HeLa = assay: Cytotoxicity against human HeLa cells after 36 hrs by MTT assay; format: functional, cell-based
[1] = Cytotoxicity against HEK293T cells after 36 hrs by MTT assay; format: cell-based; settings: Homo sapiens, HEK-293T
MCF7 = assay: Cytotoxicity against human MCF7 cells after 36 hrs by MTT assay; format: functional, cell-based; settings: MCF7, 36 h
A549 = assay: Cytotoxicity against human A549 cells after 36 hrs by MTT assay; format: functional, cell-based; settings: A549, 36 h

Compound	pIC50 (HeLa)	pIC50 [1]	pIC50 (MCF7)	pIC50 (A549)
COc1cc(C2c3cc4c(cc3[C@H](OC(=O)[C@@H](Cc3ccccc3)N3C(=O)C5CCCCC5C3=O)[C@H]3COC(=O)[C@H]23)OCO4)cc(OC)c1OC (stereo not given in full)	5.41	4.20	5.43	5.41
COc1cc([C@@H]2c3cc4c(cc3[C@@H](O[C@@H]3O[C@@H]5CO[C@@H](C)O[C@H]5[C@H](O)[C@H]3O)[C@H]3COC(=O)[C@H]23)OCO4)cc(OC)c1O [ETOPOSIDE]	5.36	4.94	5.76	5.10
COc1cc(C2c3cc4c(cc3[C@H](OC(=O)[C@H](Cc3ccccc3)N3C(=O)c5ccccc5C3=O)[C@H]3COC(=O)[C@H]23)OCO4)cc(OC)c1OC (stereo not given in full)	4.90	4.26	5.00	5.09
COc1cc(C2c3cc4c(cc3[C@H](OC(=O)[C@@H](Cc3ccccc3)N3C(=O)c5ccccc5C3=O)[C@H]3COC(=O)[C@H]23)OCO4)cc(OC)c1OC (stereo not given in full)	4.73	4.29	4.59	5.14
COc1cc(C2c3cc4c(cc3[C@H](OC(=O)[C@H](Cc3ccccc3)N3C(=O)C5C6CCC(O6)C5C3=O)[C@H]3COC(=O)[C@H]23)OCO4)cc(OC)c1OC (stereo not given in full)	5.06	4.15	5.19	5.43
COc1cc(C2c3cc4c(cc3[C@H](OC(=O)C(Cc3ccccc3)N3C(=O)c5ccccc5C3=O)[C@H]3COC(=O)[C@H]23)OCO4)cc(OC)c1OC (stereo not given in full)	5.15	4.18	5.19	5.38
COc1cc(C2c3cc4c(cc3[C@H](OC(=O)[C@H](C)N3C(=O)C5C6CCC(O6)C5C3=O)[C@H]3COC(=O)[C@H]23)OCO4)cc(OC)c1OC (stereo not given in full)	5.52	4.19	5.91	5.93
COc1cc(C2c3cc4c(cc3[C@H](OC(=O)[C@@H](C)N3C(=O)C5C6CCC(O6)C5C3=O)[C@H]3COC(=O)[C@H]23)OCO4)cc(OC)c1OC (stereo not given in full)	5.94	4.09	5.93	5.70
COc1cc(C2c3cc4c(cc3[C@H](OC(=O)[C@H](C)N3C(=O)C5CCCCC5C3=O)[C@H]3COC(=O)[C@H]23)OCO4)cc(OC)c1OC (stereo not given in full)	5.24	4.13	5.34	5.61
COc1cc(C2c3cc4c(cc3[C@H](OC(=O)[C@@H](C)N3C(=O)c5ccccc5C3=O)[C@H]3COC(=O)[C@H]23)OCO4)cc(OC)c1OC (stereo not given in full)	4.93	4.23	5.08	5.09
